Measured values reported in patent US7674807B2, “Heterocycle-substituted n-phenyl-phthalamide derivatives, related compounds and their use as insecticides” (Bayer CropScience AG, priority 2004, dated 2010).

Experiments:
[1] = tested on: larva of Spodoptera litura; assay: Test against larva of Spodoptera litura (leaf dip, sweet potato leaves); assay type: in vivo; conditions: 20 ppm concentration of the active component; third instar larvae; counted after 7 days; 25° C.
Experimental: Preparation of Test Solution:
In order to make an appropriate formulation of an active compound, 1 part by weight of the active compound was mixed with the above-mentioned amount of solvent containing the above-mentioned amount of emulsifier and the mixture was diluted with water to a prescribed concentration.
Leaves of sweet potato were soaked in the test solution diluted to a prescribed concentration with water, dried in the air and put in a dish of 9 cm diameter.
10 larvae of Spodoptera litura at the third instar were placed on the leaves and kept in a room at the constant temperature of 25° C. After 2 and 4 days further leaves of sweet potato were added and after 7 days the number of dead larvae was counted and the rate of death was calculated.
In this test the results of 2 dishes at 1 section were averaged.

[2] = tested on: larva of Cnaphalocrocis medinalis Guenee; assay: Test against larva of Cnaphalocrocis medinalis Guenee (sprayed paddy rice foliage); assay type: in vivo; conditions: 20 ppm concentration of the active component; second instar larvae; counted after 7 days; 25° C.
Experimental: Paddy rice (variety: Tamanishiki) planted in a pot was treated by spraying 50 ml per pot of the diluted aqueous solution of the prescribed concentration of the active compound prepared in the same manner as in the above-mentioned Biological Test Example 1. After the treated rice plant was dried in the air, their foliage part was cut in 4-5 cm length, which were put in a dish with 9 cm diameter with a sheet of filter paper and 2 ml of water. Five larvae of Cnaphalocrocis medinalis Guenee at the second instar were put in the dish that was placed in a room at the constant temperature of 25° C. After 2 and 4 days, each rest (each ⅓ amount) of foliage parts of rice plant were cut in the same manner and added to the dish. After 7 days the number of dead larvae was counted and the rate of death was calculated. In this test the results of 2 dishes at 1 section were averaged.

Structure (SMILES): CSC[C@H](C)NC(=O)c1c(OS(C)(=O)=O)cccc1C(=O)Nc1ccc(-n2nc(C(F)(F)F)cc2C(F)(F)F)cc1C [compound 492]
- controlling effect, rate of death [1]: 100%
- controlling effect, rate of death [2]: 100%

Structure (SMILES): CSCC(C)NC(=O)c1c(I)cccc1C(=O)Nc1ccc(-n2nc(C(F)(F)F)cc2C(F)(F)F)cc1C (stereo not shown) [compound 413]
- controlling effect, rate of death [1]: 100%
- controlling effect, rate of death [2]: 100%

Structure (SMILES): Cc1cc(Cn2nc(C(F)(F)F)nc2C(F)(F)F)ccc1NC(=O)c1cccc(I)c1C(=O)NC(C)C [compound 210]
- controlling effect, rate of death [1]: 100%
- controlling effect, rate of death [2]: 100%

Structure (SMILES): Cc1cc(Cn2nc(C(F)(F)F)cc2C(F)(F)F)ccc1NC(=O)c1cccc([N+](=O)[O-])c1C(=O)N[C@@H](C)C[S+](C)[O-] (stereo partly shown) [compound 544]
- controlling effect, rate of death [1]: 100%
- controlling effect, rate of death [2]: 100%

Structure (SMILES): Cc1cc(Cn2cc(C(F)(F)C(F)(F)C(F)(F)F)c(C(F)(F)C(F)(F)C(F)(F)F)n2)ccc1NC(=O)c1cccc(I)c1C(=O)N[C@@H](C)CS(C)(=O)=O [compound 672]
- controlling effect, rate of death [1]: 100%
- controlling effect, rate of death [2]: 100%

Structure (SMILES): Cc1cc(Cn2nc(C(F)(F)F)cc2C(F)(F)F)ccc1NC(=O)c1cccc(Br)c1C(=O)NC(C)CS(C)(=O)=O (racemic) [compound 52]
- controlling effect, rate of death [1]: 100%
- controlling effect, rate of death [2]: 100%

Structure (SMILES): Cc1cc(C(C)n2nc(C(F)(F)F)nc2C(F)(F)F)ccc1NC(=O)c1cccc(I)c1C(=O)N[C@@H](C)CS(C)(=O)=O (stereo partly shown) [compound 573]
- controlling effect, rate of death [1]: 100%
- controlling effect, rate of death [2]: 100%

Structure (SMILES): Cc1cc(Cn2cc(C(F)(F)C(F)(F)C(F)(F)F)c(C(F)(F)C(F)(F)F)n2)ccc1NC(=O)c1cccc(I)c1C(=O)N[C@@H](C)C[S+](C)[O-] (stereo partly shown) [compound 661]
- controlling effect, rate of death [1]: 100%
- controlling effect, rate of death [2]: 100%

Structure (SMILES): Cc1cc(Cn2nc(C(F)(F)C(F)(F)F)nc2C(F)(F)F)ccc1NC(=O)c1cccc(I)c1C(=O)NC(C)C[S+](C)[O-] (stereo not shown) [compound 229]
- controlling effect, rate of death [1]: 100%
- controlling effect, rate of death [2]: 100%

Structure (SMILES): Cc1cc(Cn2nc(C(F)(F)F)cc2C(F)(F)F)ccc1NC(=O)c1cccc(Cl)c1C(=O)NC(C)CS(C)(=O)=O (stereo not shown) [compound 16]
- controlling effect, rate of death [1]: 100%
- controlling effect, rate of death [2]: 100%

Structure (SMILES): Cc1cc(Cn2cc(C(F)(F)C(F)(F)C(F)(F)C(F)(F)F)c(C(F)(F)F)n2)ccc1NC(=O)c1cccc(I)c1C(=O)N[C@@H](C)CS(C)(=O)=O [compound 650]
- controlling effect, rate of death [1]: 100%
- controlling effect, rate of death [2]: 100%

Structure (SMILES): Cc1cc(Cn2cc(C(F)(F)C(F)(F)C(F)(F)F)c(C(F)(F)C(F)(F)F)n2)ccc1NC(=O)c1cccc(Cl)c1C(=O)N[C@@H](C)C[S+](C)[O-] (stereo partly shown) [compound 658]
- controlling effect, rate of death [1]: 100%
- controlling effect, rate of death [2]: 100%

Structure (SMILES): CSC[C@H](C)NC(=O)c1c(I)cccc1C(=O)Nc1ccc(Cn2cc(C(F)(F)C(F)(F)C(F)(F)C(F)(F)F)c(C(F)(F)F)n2)cc1C [compound 648]
- controlling effect, rate of death [1]: 100%
- controlling effect, rate of death [2]: 100%

Structure (SMILES): CSCC(C)NC(=O)c1c(I)cccc1C(=O)Nc1ccc(Cn2nc(C(F)(F)F)cc2C(F)(F)F)cc1C (racemic) [compound 85]
- controlling effect, rate of death [1]: 100%
- controlling effect, rate of death [2]: 100%

Structure (SMILES): Cc1cc(Cn2cc(C(F)(F)C(F)(F)C(F)(F)C(F)(F)F)c(C(F)(F)F)n2)ccc1NC(=O)c1cccc(Cl)c1C(=O)N[C@@H](C)C[S+](C)[O-] (stereo partly shown) [compound 646]
- controlling effect, rate of death [1]: 100%
- controlling effect, rate of death [2]: 100%

Structure (SMILES): Cc1cc(Cn2nc(C(F)(F)F)cc2C(F)(F)F)ccc1NC(=O)c1cccc(Br)c1C(=O)NC(C)CS(C)(=O)=O (stereo not shown) [compound 53]
- controlling effect, rate of death [1]: 100%
- controlling effect, rate of death [2]: 100%

Structure (SMILES): CSCC(C)NC(=O)c1c(I)cccc1C(=O)Nc1ccc(-n2nc(C(F)(F)F)cc2C(F)(F)F)cc1C (stereo not shown) [compound 414]
- controlling effect, rate of death [1]: 100%
- controlling effect, rate of death [2]: 100%

Structure (SMILES): CSC[C@H](C)NC(=O)c1c(Cl)cccc1C(=O)Nc1ccc(C(C)n2nc(C(F)(F)C(F)(F)F)nc2C(F)(F)F)cc1C (stereo partly shown) [compound 578]
- controlling effect, rate of death [1]: 100%
- controlling effect, rate of death [2]: 100%

Structure (SMILES): CSC[C@H](C)NC(=O)c1c(I)cccc1C(=O)Nc1ccc(Cn2cc(C(F)(F)C(F)(F)F)c(C(F)(F)C(F)(F)C(F)(F)F)n2)cc1C [compound 666]
- controlling effect, rate of death [1]: 100%
- controlling effect, rate of death [2]: 100%

Structure (SMILES): Cc1cc(Cn2nc(C(F)(F)C(F)(F)F)nc2C(F)(F)F)ccc1NC(=O)c1cccc(I)c1C(=O)NC(C)CS(C)(=O)=O (stereo not shown) [compound 231]
- controlling effect, rate of death [1]: 100%
- controlling effect, rate of death [2]: 100%

Structure (SMILES): CSC[C@H](C)NC(=O)c1c(Cl)cccc1C(=O)Nc1ccc(Cn2cc(C(F)(F)C(F)(F)C(F)(F)C(F)(F)F)c(C(F)(F)C(F)(F)F)n2)cc1C [compound 663]
- controlling effect, rate of death [1]: 100%
- controlling effect, rate of death [2]: 100%

Structure (SMILES): CSC[C@H](C)NC(=O)c1c(Cl)cccc1C(=O)Nc1ccc(Cn2cc(C(F)(F)C(F)(F)F)c(C(F)(F)F)n2)cc1C [compound 637]
- controlling effect, rate of death [1]: 100%
- controlling effect, rate of death [2]: 100%

Structure (SMILES): CSC[C@H](C)NC(=O)c1c(I)cccc1C(=O)Nc1ccc(Cn2cc(C(F)(F)C(F)(F)C(F)(F)F)c(C(F)(F)F)n2)cc1C [compound 644]
- controlling effect, rate of death [1]: 100%
- controlling effect, rate of death [2]: 100%

Structure (SMILES): CSCC(C)(C)NC(=O)c1c(I)cccc1C(=O)Nc1ccc(-n2ccc(C(F)(F)C(F)(F)F)n2)cc1C [compound 434]
- controlling effect, rate of death [1]: 100%
- controlling effect, rate of death [2]: 100%

Structure (SMILES): Cc1cc(Cn2nc(C(F)(F)C(F)(F)F)nc2C(F)(F)F)ccc1NC(=O)c1cccc(I)c1C(=O)NC(C)CS(C)(=O)=O (stereo not shown) [compound 230]
- controlling effect, rate of death [1]: 100%
- controlling effect, rate of death [2]: 100%

Structure (SMILES): Cc1cc(Cn2cc(C(F)(F)C(F)(F)F)c(C(F)(F)F)n2)ccc1NC(=O)c1cccc(I)c1C(=O)N[C@@H](C)C[S+](C)[O-] (stereo partly shown) [compound 641]
- controlling effect, rate of death [1]: 100%
- controlling effect, rate of death [2]: 100%

Structure (SMILES): Cc1cc(Cn2nc(C(F)(F)F)cc2C(F)(F)F)ccc1NC(=O)c1cccc(Cl)c1C(=O)NC(C)C[S+](C)[O-] (mixture of isomers) [compound 14]
- controlling effect, rate of death [1]: 100%
- controlling effect, rate of death [2]: 100%

Structure (SMILES): Cc1cc(Oc2nc(C(F)(F)F)cc(C(F)(F)F)n2)ccc1NC(=O)c1cccc(I)c1C(=O)NC(C)(C)CS(C)(=O)=O [compound 310]
- controlling effect, rate of death [1]: 100%
- controlling effect, rate of death [2]: 100%

Structure (SMILES): CSC[C@H](C)NC(=O)c1c(Cl)cccc1C(=O)Nc1ccc(Cn2nc(SC(F)(F)C(F)(F)C(F)(F)F)nc2C(F)(F)F)cc1C [compound 804]
- controlling effect, rate of death [1]: 100%
- controlling effect, rate of death [2]: 100%

Structure (SMILES): CSCC(C)(C)NC(=O)c1c(I)cccc1C(=O)Nc1ccc(-n2nccc2C(F)(F)C(F)(F)F)cc1C [compound 422]
- controlling effect, rate of death [1]: 100%
- controlling effect, rate of death [2]: 100%

Structure (SMILES): CSCC(C)NC(=O)c1c(Br)cccc1C(=O)Nc1ccc(Cn2nc(C(F)(F)F)cc2C(F)(F)F)cc1C (racemic) [compound 48]
- controlling effect, rate of death [1]: 100%
- controlling effect, rate of death [2]: 100%

Structure (SMILES): Cc1cc(-n2cc(C(F)(F)C(F)(F)F)cn2)ccc1NC(=O)c1cccc(I)c1C(=O)NC(C)(C)CS(C)(=O)=O [compound 448]
- controlling effect, rate of death [1]: 100%
- controlling effect, rate of death [2]: 100%
